# Reference: ChEMBL document CHEMBL5385926, “Production of Kinanthraquinone D with Antimalarial Activity by Heterologous Gene Expression and Biotransformation in Streptomyces lividans TK23” (J Nat Prod, 2024)
# Several values for one entry are separate records, joined by “and”; a condition that tells them apart may be missing. Identical values can stand only once.
# Tests used:
# Plasmodium falciparum = test: Antimalarial activity against Plasmodium falciparum 3D7; format: functional, organism-based
# [1] = Cytotoxicity against human HeLa cells; format: toxicity, cell-based
# Staphylococcus aureus = test: Antimicrobial activity against Staphylococcus aureus 209; format: functional, organism-based
# [2] = Cytotoxicity against human HL-60 cells; format: toxicity, cell-based
IC50 (Plasmodium falciparum),IC50 (Staphylococcus aureus),Compound,IC50 [1],IC50 [2]
910 nM and 0.4 µg/mL,> 30 µM and > 11.9 µg/mL,COc1ccc2c(c1OC)C(=O)c1c(O)cc(/C=C(/C)CC(N)=O)c(O)c1C2=O,> 30 µM and > 11.9 µg/mL,> 30 µM and > 11.9 µg/mL
15 µM and 5.7 µg/mL,18 µM and 6.9 µg/mL,COc1ccc2c(c1OC)C(=O)c1ccc(/C=C(/C)CC(=O)O)c(O)c1C2=O,> 30 µM and > 11.5 µg/mL,> 30 µM and > 11.5 µg/mL
> 30 µM and > 13.2 µg/mL,> 30 µM and > 13.2 µg/mL,COc1ccc2c(c1OC)C(=O)c1ccc(/C=C(/C)CC(=O)NCC(=O)O)c(O)c1C2=O,> 30 µM and > 13.2 µg/mL,> 30 µM and > 13.2 µg/mL
1.21 µM and 0.5 µg/mL,> 30 µM and > 11.4 µg/mL,COc1ccc2c(c1OC)C(=O)c1ccc(/C=C(/C)CC(N)=O)c(O)c1C2=O,> 30 µM and > 11.4 µg/mL,> 30 µM and > 11.4 µg/mL
